# Key:
# [1] = tested on: Arabidopsis guard cells; settings: loaded into Arabidopsis guard cells; cited from earlier work
# [2] = tested on: wild-type Arabidopsis thaliana plants; assay: Norflurazon bleaching of leaves and CO2-induced stomatal movements in albino leaves; assay type: in vivo
# Procedure: To further analyze whether intact photosynthesis is required for CO2 regulation of stomatal movements, another approach was carried out.
# FIG. 13A illustrates an image of chlorophyll-deficient albino wild-type leaves devoid of functional chloroplasts were generated by application of the carotenoid biosynthesis inhibitor norflurazon. The absence of chlorophyll in albino guard cells compared to wild-type was visualized by confocal microscopy (FIG. 13B graphically illustrates data) and quantified by image analysis of the chlorophyll fluorescence intensity (FIG. 13C graphically illustrates data) (n=3, 12 stomata/sample.). FIG. 13D graphically illustrates data showing CO2-induced stomatal movements in albino versus control plant leaves (n=7, 50 stomata/sample). Error bars depict means±s.e.m.
# [3] = tested on: ca1ca4 leaf epidermis stomata; assay: abscisic acid-induced stomatal closing in leaf epidermis; assay type: cell-based, Arabidopsis thaliana
# Procedure: FIG. 10A illustrates stomata in ca1ca4 double mutant leaves close in response to abscisic acid; n=3 experiments, 30 stomata/experiment and condition. Error bars depict means±s.e.m. FIG. 10B illustrates CO2-induced stomatal movements are impaired in ca1ca4 double mutant leaves and in wild-type leaf epidermis treated with the carbonic anhydrase inhibitor 6-ethoxy-2-benzothiazolesulphonamide (EZA) (n=6, 30 stomata/sample); see e.g., Becker et al., 2007.
# To determine whether the impaired CO2 responses in intact leaves (see FIG. 9C, FIG. 9D, FIG. 9E) are linked to stomatal movements, CO2 responses were analyzed in leaf epidermis. CO2-induced stomatal movements were impaired in ca1ca4 as compared to wild-type, as illustrated in FIG. 10B. Furthermore, when wild-type leaf epidermis were treated for 30 min with the membrane-permeable CA inhibitor EZA (see, e.g., Becker et al., 2007), CO2-induced stomatal opening and closing were inhibited, which correlates with a role for carbonic anhydrases in CO2 sensing, rather than a long-term developmental effect of CA gene disruption on the rapid CO2 response, as illustrated in FIG. 10B.
# [4] = tested on: wild-type leaf epidermis stomata; assay: CO2-induced stomatal movements in leaf epidermis treated with carbonic anhydrase inhibitor; assay type: cell-based, Arabidopsis thaliana; settings: wild-type leaf epidermis treated for 30 min
compound,measurement,setting,value
O=C(O)CN(CC(=O)O)c1ccccc1OCCOc1ccccc1N(CC(=O)O)CC(=O)O [BAPTA],spontaneous calcium transients in guard cells,[1],effectively inhibits
CNc1cnn(-c2cccc(C(F)(F)F)c2)c(=O)c1Cl [Norflurazon],stomatal CO2 response to both high and low [CO2] in intact leaves,[2]; albino leaves without functional chloroplasts,not affected
same,leaf phenotype of newly emerging leaves,[2]; watering 3 to 4 week-old wild-type plants,albino chlorophyll-deficient wild-type leaves devoid of functional chloroplasts
CC1=CC(=O)CC(C)(C)[C@@]1(O)/C=C/C(C)=C\C(=O)O [abscisic acid],ABA-induced stomatal closing,[3],completely functional
"CCOc1ccc2nc(S(N)(=O)=O)sc2c1 [EZA, 6-ethoxy-2-benzothiazolesulphonamide]",CO2-induced stomatal opening and closing,[4],inhibited
